Results as given in article PMC6627609, “Targeting Quorum Sensing: High-Throughput Screening to Identify Novel LsrK Inhibitors” (International Journal of Molecular Sciences, 2019).
Structures can show the parent of a compound that is named as a salt.

Each compound was assayed against LsrK (Salmonella typhimurium, UniProt Q8ZKQ6) (assay: biochemical). Conditions: not given.
Type: biochemical, S. typhimurium

LsrK, sequence (Q8ZKQ6 whole entry): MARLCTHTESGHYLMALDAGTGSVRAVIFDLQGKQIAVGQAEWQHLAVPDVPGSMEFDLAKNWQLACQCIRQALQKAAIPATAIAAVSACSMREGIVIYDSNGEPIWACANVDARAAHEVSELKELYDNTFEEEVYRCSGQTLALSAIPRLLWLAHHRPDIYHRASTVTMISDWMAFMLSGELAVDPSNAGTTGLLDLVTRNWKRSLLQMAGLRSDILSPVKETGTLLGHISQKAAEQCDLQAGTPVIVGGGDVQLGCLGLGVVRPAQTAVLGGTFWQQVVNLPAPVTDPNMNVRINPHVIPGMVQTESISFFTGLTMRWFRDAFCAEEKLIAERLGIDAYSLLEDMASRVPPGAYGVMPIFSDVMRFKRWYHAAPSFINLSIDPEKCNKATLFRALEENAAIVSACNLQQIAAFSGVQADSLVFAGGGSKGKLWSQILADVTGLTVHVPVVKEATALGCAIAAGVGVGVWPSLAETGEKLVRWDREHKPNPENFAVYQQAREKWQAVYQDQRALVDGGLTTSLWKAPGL

Compound	inhibition at 50 µM [%]	IC50 [µM]
CC(C)=CCc1c2c(c3occ(-c4ccc(O)c(O)c4)c(=O)c3c1O)C=CC(C)(C)O2 [POMIFERIN]	2	
O=c1c(O)c(-c2ccc(O)cc2)oc2cc(O)cc(O)c12 [KAEMPFEROL]	0	
CCn1cc(C(=O)O)c(=O)c2cc3c(cc21)OCO3 [OXOLINIC ACID]	1	
O=C(O)c1ccccc1OP(=O)(O)O [FOSFOSAL]	0	
CO/N=C1\CN(c2nc3c(cc2F)c(=O)c(C(=O)O)cn3C2CC2)CC1CN (stereo not shown) [GEMIFLOXACIN MESYLATE]	0	
Cc1ccc(N(CC2=NCCN2)c2cccc(O)c2)cc1 [PHENTOLAMINE HYDROCHLORIDE]	0	
O=C(O)c1cc(O)c(=O)c2c(O)c(O)ccc2c1 [7-DESHYDROXYPYROGALLIN-4-CARBOXYLIC ACID]	107	7
COC(=O)c1c(C)cc(OC(=O)c2c(C)cc(O)c(C=O)c2O)c(C)c1O [ATRANORIN]	0	
CC1(C)O[C@@H]2[C@@H](CO[C@@]3(COS(N)(=O)=O)OC(C)(C)O[C@@H]23)O1 [TOPIRAMATE]	1	
CC(C)(Oc1ccc(CCNC(=O)c2ccc(Cl)cc2)cc1)C(=O)O [BEZAFIBRATE]	2	
CC(C)n1c(/C=C/C(O)CC(O)CC(=O)O)c(-c2ccc(F)cc2)c2ccccc21 (stereo not shown) [FLUVASTATIN]	6	
NC(=O)C[S+]([O-])C(c1ccccc1)c1ccccc1 (stereo not shown) [MODAFINIL]	1	
NS(=O)(=O)c1cc2c(cc1Cl)N=CNS2(=O)=O [CHLOROTHIAZIDE]	0	
CO[C@@]1(NC(=O)C(C(=O)O)c2ccc(O)cc2)C(=O)N2C(C(=O)O)=C(CSc3nnnn3C)CO[C@@H]21 (stereo partly shown) [MOXALACTAM DISODIUM]	1	
COc1ccc(/C=C/c2cc(O)cc(O)c2)cc1 [RESVERATROL 4'-METHYL ETHER]	2	
C=CC(C1=CC(=O)C=CC1=O)c1ccccc1 (stereo not shown) [DALBERGIONE]	91	
Cc1cc(O)c(C=O)c2c1C(=O)Oc1c(C)c(O)c3c(c1O2)C(O)OC3=O (stereo not shown) [[…]]	145	
CC(=O)Nc1cccc(O)c1 [METACETAMOL]	1	
CN(C)c1ccc(C(=C2C=CC(=[N+](C)C)C=C2)c2ccc(N(C)C)cc2)cc1 [GENTIAN VIOLET]	11	
CCC(C)(C)C(=O)O[C@H]1C[C@@H](C)C=C2C=C[C@H](C)[C@H](CC[C@@H]3C[C@@H](O)CC(=O)O3)[C@H]21 [SIMVASTATIN]	3	

Compound	inhibition at 50 µM [%]	IC50 [µM]
Cc1cc(OC(=O)c2c(C)cc(O)cc2O)cc(O)c1C(=O)O [LECANORIC ACID]	0	
Cc1ccc(S(=O)(=O)NC(=O)NN2CC3CCCC3C2)cc1 (stereo not shown) [GLICLAZIDE]	1	
COc1ccc2[nH]c([S+]([O-])Cc3ncc(C)c(OC)c3C)nc2c1 (stereo not shown) [OMEPRAZOLE]	6	
Cc1ccc(C(=O)c2ccc(CC(=O)O)n2C)cc1 [TOLMETIN SODIUM]	1	
COC(=O)C[C@H]1C(C)(C)[C@@H](O)[C@@H]2CC3=C4C=C(OC)O[C@@H](c5ccoc5)[C@]4(C)CCC3[C@@]1(C)C2=O (stereo partly drawn) [3-DEOXO-3beta-HYDROXYMEXICANOLIDE 16-ENOL ETHER]	2	
O=c1oc2ccccc2c(O)c1Cc1c(O)c2ccccc2oc1=O [DICUMAROL]	4	
COC1=CC(=O)C(C(=O)c2ccccc2)=CC1=O [2-BENZOYL-5-METHOXYBENZOQUINONE]	38	
CC(C)NCC(O)c1cc(O)cc(O)c1 (stereo not shown) [METAPROTERENOL]	3	
Nc1[nH]c(=O)ncc1F [FLUCYTOSINE]	0	
COc1cc2nc(N3CCN(C(=O)C4COc5ccccc5O4)CC3)nc(N)c2cc1OC (stereo not shown) [DOXAZOSIN MESYLATE]	0	
CCn1cc(C(=O)O)c(=O)c2cnc(N3CCCC3)nc21 [PIROMIDIC ACID]	19	
N=C(N)NC(=O)c1nc(Cl)c(N)nc1N [AMILORIDE HYDROCHLORIDE]	1	
COC(=O)[C@H](Cc1ccccc1)NC(=O)[C@@H](N)CC(=O)O	0	
CC1=C(C(=O)O)N2C(=O)[C@@H](NC(=O)[C@H](N)c3ccc(O)cc3)[C@H]2SC1 [CEFADROXIL]	1	
CC(=O)N(O)CCCCCNC(=O)CCC(=O)N(O)CCCCCNC(=O)CCC(=O)N(O)CCCCCN [DEFEROXAMINE MESYLATE]	1	
O=C(O)c1ccccc1C(=O)Nc1ccc(S(=O)(=O)Nc2nccs2)cc1 [PHTHALYLSULFATHIAZOLE]	1	
Cn1cnc2c1c(=O)[nH]c(=O)n2C [THEOBROMINE]	0	
CC(C)=CCC1=C(O)C(=O)c2ccccc2C1=O [LAPACHOL]	1	
C/C=C(\C)C(=O)O[C@H]1[C@H](OC(C)=O)[C@@]2(CO)C(CC1(C)C)C1=CC[C@@H]3[C@@]4(C)CC[C@H](O[C@@H]5O[C@H](C(=O)O)[C@@H](O[C@@H]6O[C@H](CO)[C@@H](O)[C@H](O)[C@H]6O)[C@H](O)[C@H]5O[C@@H]5O[C@H](CO)[C@@H](O)[C@H](O)[C@H]5O)[C@H](CO)C4CC[C@@]3(C)[C@@]1(C)C[C@H]2O (stereo partly drawn) [beta-ESCIN]	129	
COC1=C(O)C(=O)c2c(cc3oc(C(C)=O)c(O)c3c2O)C1=O [RHO[…]]	22	

Same assay, conditions: 50 µM

Compound	Inhibition (%)
COC(=O)C[C@H]1C(C)(C)[C@@H](O)[C@@H]2CC3=C4CC(O)O[C@@H](c5ccoc5)[C@]4(C)CCC3[C@@]1(C)C2=O (stereo partly drawn) [3.16-DIDEOXYMEXICANOLIDE-3beta-DIOL]	0
CN1CCC[C@H]1c1cccnc1.O=C(O)C(O)C(O)C(=O)O.O=C(O)C(O)C(O)C(=O)O [NICOTINE DITARTRATE]	0
COc1ccc(-c2oc3ccccc3c(=O)c2O)cc1OC [3-HYDROXY-3'.4'-DIMETHOXYFLAVONE]	0
CN(C)CCOc1ccc(/C(=C(/CCCl)c2ccccc2)c2ccccc2)cc1 [TOREMIPHENE CITRATE]	138
CC(C)CC(N(C)C)C1(c2ccc(Cl)cc2)CCC1.Cl (stereo not shown) [SIBUTRAMINE HYDROCHLORIDE]	1
COc1cc2c(cc1OC)-c1c(oc3cc(O)cc(O)c3c1=O)CO2 [APOTOXICAROL]	1
Cc1cc2nc3c(=O)[nH]c(=O)nc-3n(C[C@H](O)[C@H](O)[C@H](O)COP(=O)([O-])O)c2cc1C.[Na+] [RIBOFLAVIN 5-PHOSPHATE SODIUM]	1
O=C(O[C@@H]1Cc2c(O)cc(O)cc2O[C@@H]1c1cc(O)c(O)c(O)c1)c1cc(O)c(O)c(O)c1 [EPIGALLOCATECHIN-3-MONOGALLATE]	87
C1CCN2C[C@@H]3C[C@@H](CN4CCCC[C@@H]34)[C@H]2C1.I [SPARTEINE HYDROIODIDE]	1
C=N[C@@H](C(=O)N[C@@H]1C(=O)N2[C@@H]1SC(C)(C)[C@@H]2C(=O)[O-])c1ccccc1.[Na+] [METAMPICILLIN SODIUM]	2
CNCCCC1c2ccccc2C=Cc2ccccc21.Cl [PROTRYPTYLINE HYDROCHLORIDE]	1
TEICOPLANIN [TEICOPLANIN [A(2-1) shown]]	148%
O=c1c(O)c(-c2ccc(O)c(O)c2)oc2c(O[C@@H]3O[C@H](CO)[C@@H](O)[C@H](O)[C@H]3O)c(O)cc(O)c12 [GOSSYPIN]	57
COC(=O)[C@H]1[C@H]2C[C@H]3c4[nH]c5ccccc5c4CCN3C[C@@H]2CC[C@@H]1O [CORYNANTHINE]	2
